Reference: patent US20250074976A1, “PHARMACEUTICAL COMPOSITION FOR TREATING PERIPHERAL NERVE INJURY” (NATIONAL UNIVERSITY CORPORATION HOKKAIDO UNIVERSITY, priority 2021, published 2025)

Key:
Type in all cases: in vivo, Lewis rats
[1] = test system: sciatic nerve crush injury; assay: Collagen sheet covering 15 mm to 25 mm distal to injury site, evaluation 12 hours after crush injury (NETs, macrophages); details: n=3; for NETs in the epineurium (CitH3 positive area) / macrophages accumulated in the nerve parenchyma: 20 mm distal
Excerpt: (§1) Anesthetized Lewis rats (males, 12-16 weeks old) or C57BL/6 mice (males, 8-10 weeks old) were placed in the prone position and a longitudinal skin incision was made from the left buttock to the distal left thigh to expose the entire sciatic nerve. Crush injuries were created with micro mosquito forceps (Fine Science Tools, No. 13010-12). An 8-0 Nylon thread was applied to the epineurium at the crush injury for marking, and the incision was closed.
(§2) After a predetermined time had elapsed from the creation of the crush injury, the right atrial appendage of the animals was incised under anesthesia to release the blood, and a PBS solution was poured into the left heart to remove the blood. After transcardial perfusion and fixation with 4% paraformaldehyde-added PBS, the sciatic nerve was collected.
(§3) Sciatic nerves collected from animals were fixed in 4% PFA at 4° C. overnight and then transferred to 30% Sucrose/PB solution and allowed to stand for 24 hours or longer. Longitudinal sciatic nerve sections of 10 μm thickness, or in the case of mice, transverse sections at predetermined locations, were prepared using a cryostat. The sections were blocked in TBS (pH 8.4) containing 5% Normal horse serum (Thermo Fisher Scientific, Waltham, MA) and 0.25% Triton X-100 (Sigma-Aldrich, St. Louis, MO) for 1 hour, and then immersed in TBS containing primary antibody at 4° C. overnight and in TBS containing secondary antibody at room temperature for 1 hour for staining. After washing with TBS, counterstaining was performed with DAPI. After staining, tissues were observed using a fluorescence microscope BZ-X710 (KEYENCE). Image analysis was performed using Image J (Schneider et al., 2012).
Crush injuries were created in the sciatic nerve of rats. Ten hours after injury creation, the sciatic nerves from 15 mm to 25 mm distal to the injury site were wrapped with the collagen-based artificial skin PELNAC (registered trademark) (Smith & Nephew; hereafter also referred to as sheets or collagen sheets) impregnated with either 50 μl of PBS containing 0.3 mg of the PAD4 inhibitor Cl-amidine (Cayman CHEMICAL #10599), 50 μl of PBS containing 200 U of DNase I (Nippon Gene #314-08071), or 50 μl of PBS (control). The sheets were suture-fixed with 8-0 nylon and placed for 2 hours (n=3 in each group). Twelve hours after injury creation, the sciatic nerves were collected, their longitudinal sections at 20 mm distal to the injury site were prepared and immunohistochemical staining for CitH3, Ly-6G, and CD68 was performed. The epineural area was observed and the percentage of area stained for CitH3 in the total area of the field of view was calculated. The number of macrophages per unit area of the nerve parenchyma was quantified.
Crush injuries were created in the sciatic nerve of rats. Ten hours after injury creation, the sciatic nerves from 15 mm to 25 mm distal to the injury site were wrapped with collagen sheets impregnated with either 50 μl of 1% DMSO containing 500 μg of the MIF inhibitor iso-1 (Abcam, Cat ab142140), or 50 μl of 1% DMSO. The sheets were suture-fixed with 8-0 nylon and placed for 2 hours (n=3 in each group). Twelve hours after injury creation, the sciatic nerves were collected, their longitudinal sections were prepared, and immunohistochemical staining for CitH3, Ly-6G, and CD68 was performed. The epineural area was observed and the percentage of area stained for CitH3 in the total area of the field of view was calculated. The number of macrophages per unit area of the nerve parenchyma was quantified.
Crush injuries were created in the sciatic nerve of rats. Ten hours after injury creation, the sciatic nerves from 15 mm to 25 mm distal to the injury site were wrapped with collagen sheets impregnated with either 50 μl of PBS containing 500 μg of the CXCR4 inhibitor AMD3100 (Abcam #10599), or 50 μl of PBS. The sheets were suture-fixed with 8-0 nylon and placed for 2 hours (n=3 in each group).

[2] = test system: sciatic nerve crush injury; assay: Collagen sheet covering 5 mm to 25 mm distal to injury site, evaluation 7 days after crush injury (macrophages, axonal regeneration); details: placed 2 hours, 7 days after injury, vs control sheet
Excerpt: as §1, §2, §3
(§4) In β3 tubulin-immunostained images of longitudinal sciatic nerve sections, vertical lines were set at 5 mm intervals in the direction distal to the injury site, and the number of axons crossing each line was divided by the length of the line to calculate axon density. The axonal regeneration percentage was calculated by dividing the axon density at each location by the axon density at uninjured site 1.5 mm proximal to the injury site.
(§5) Crush injuries were created in the sciatic nerve of rats.
Crush injuries were created in the sciatic nerve of rats. […] The sheets were removed 12 hours after injury creation and the incisions were closed after washing.
as §5

[3] = test system: sciatic nerve crush injury; assay: Collagen sheet covering 5 mm to 15 mm distal to injury site, evaluation 7 days after crush injury (axonal regeneration); details: sheet with 500 μg inhibitor in 50 μl 1% DMSO, placed 2 hours; 7 days after injury; vs control sheet; n=1; FIG. 37
Excerpt: Anesthetized Lewis rats (males, 12-16 weeks old) or C57BL/6 mice (males, 8-10 weeks old) were placed in the prone position and a longitudinal skin incision was made from the left buttock to the distal left thigh to expose the entire sciatic nerve. […] An 8-0 Nylon thread was applied to the epineurium at the crush injury for marking, and the incision was closed.
as §2
as §3, with “(KEYENCE).” for “(KEYENCE). Image analysis was performed using Image J (Schneider et al., 2012).”
as §4
Crush injuries were created in the sciatic nerve of rats. […] […] Seven days after injury creation, the sciatic nerves were collected, and immunohistochemical staining of their longitudinal sections was performed to calculate the axonal regeneration percentage.

`c1cc(CN2CCCNCCNCCCNCC2)ccc1CN1CCCNCCNCCCNCC1` [AMD3100, 1,4-Bis[(1,4,8,11-tetraazacyclotetradecan-1-yl)methyl]benzene] was tested, and the “NETs in the epineurium (CitH3 positive area)” value ([1]; sheet with 500 μg AMD3100 in 50 μl PBS, placed 2 hours, 12 hours after injury, FIG. 39) was “only a small amount of NETs were detected”, the “macrophages accumulated in the nerve parenchyma” value ([1]; sheet with 500 μg AMD3100 in 50 μl PBS, placed 2 hours, 12 hours after injury, vs control sheet, FIG. 40) was “more macrophages accumulated in the nerve parenchyma” and the “macrophages accumulated in the nerve parenchyma” value ([2]; sheet with 1 mg AMD3100 in 100 μl PBS, over almost the entire evaluated regions, n=1, FIG. 42) was “more macrophages accumulated in the nerve parenchyma”. The axonal regeneration percentage ([2]; sheet with 1 mg AMD3100 in 100 μl PBS, n=1, FIG. 41) was “higher axonal regeneration percentage”.
`N=C(CCl)NCCC[C@H](NC(=O)c1ccccc1)C(N)=O.O=C(O)C(F)(F)F` [Cl-amidine, N^2-Benzoyl-N^5-(1-imino-2-chloroethyl)-L-ornithinamide trifluoroacetic acid] was tested, and the “NETs in the epineurium (CitH3 positive area)” value ([1]; sheet with 0.3 mg Cl-amidine or 200 U DNase I in 50 μl PBS, placed 2 hours from 10 hours after injury, 12 hours, vs control sheet (large amount), FIG. 25) was “only a small amount of NETs were detected” and the “macrophages accumulated in the nerve parenchyma” value ([1]; sheet with 0.3 mg Cl-amidine or 200 U DNase I, placed 2 hours, 12 hours, CD68, vs control sheet, FIG. 26) was “more macrophages accumulated in the nerve parenchyma”.
`O=C(CC1CC(c2ccc(F)cc2F)=NO1)N1CCOCC1` (stereo not drawn) [CPSI-1306] was tested, and the axonal regeneration percentage [3] was “higher axonal regeneration percentage” and the longest axon length [3] was “greater longest axon length”.
With `O=C(O)CC1CC(c2ccc(O)cc2)=NO1` (racemic) [iso-1, (S,R)-3-(4-Hydroxyphenyl)-4,5-dihydro-5-isoxazole acetic acid] the axonal regeneration percentage [3] was “higher axonal regeneration percentage”, the longest axon length [3] was “greater longest axon length” and the “NETs in the epineurium at 20 mm distal to the injury site (CitH3 positive area)” value ([1]; sheet with 500 μg iso-1 in 50 μl 1% DMSO, placed 2 hours, 12 hours after injury, FIG. 32) was “only a small amount of NETs were detected”. The “macrophage accumulation at 5 mm distal to the injury site (no sheet treatment there)” value ([1]; sheet with 500 μg iso-1 in 50 μl 1% DMSO, placed 2 hours, 12 hours after injury, vs control sheet, FIG. 30) was “no difference in macrophage accumulation”, the “macrophages accumulated in the nerve parenchyma at 20 mm distal to the injury site (sheet-treated)” value ([1]; sheet with 500 μg iso-1 in 50 μl 1% DMSO, placed 2 hours, 12 hours after injury, vs control sheet, FIG. 31) was “more macrophages accumulated in the nerve parenchyma” and the axonal regeneration percentage ([2]; sheet with 1000 μg iso-1 in 100 μl 1% DMSO, over almost the entire evaluated regions, n=3, FIG. 35) was “higher axonal regeneration percentage”. For the same molecule, the “accumulation of macrophages in the nerve parenchyma (CD68; M2 macrophages CD163)” value ([2]; sheet with 1000 μg iso-1 in 100 μl 1% DMSO, over the entire evaluated regions, n=3, FIG. 33, 34) was “greater accumulation of macrophages in the nerve parenchyma”.
